We go through four molecules from article PMC5108032, “Discovery of a Quinoline-4-carboxamide Derivative with a Novel Mechanism of Action, Multistage Antimalarial Activity, and Potent in Vivo Efficacy” (Journal of Medicinal Chemistry, 2016).

A short description of data set [1]: Intrinsic clearance (Cli) in rat liver microsomes. The settings on record: rat liver microsome. It is filed as in vitro ADME. From the text:
(§1) inhibition at top, C= EC50, D= slope, x= inhibitor concentration and y= % inhibition. […]
(§2) reach 100% of inhibition, B was fixed to 100 only when at least 50% of inhibition was reached.
(§3) Plasmodium falciparum late stage (IV-V) gametocyte high content imaging assay Plasmodium falciparum NF54-pfs16-LUC-GFP stage IV-V Gametocytes were produced as described previously.5 Compounds were solubilized in DMSO and serially diluted in three concentrations per log standard curves in DM SO. One µl of compound was subsequently diluted in 25µl of water (4% DMSO) and 5µl transferred into the base of 384 well PerkinElmer CellCarrier plates. Forty-five µl of stage IV-V gametocytes (10%P in 0.1%H) were added to the imaging plates which were in turn sealed with a gas permeable membrane and incubated at 37°C, 5% CO 2, 5% O2, 90% N2 and 60% humidity […]
(§4) Post incubation, 5µl of MitoTracker® Red CM -H2Xros (MTR) solution (0.66ug/ml) was added to all wells and the plates incubated for a further 16hours. The assay plates were then imaged and the number of viable gametocytes determined for test compounds plus 0.4%DMSO and 5µM Puromycin.
(§5) (0.4%DMSO) control values. Percent inhibition was plotted against log compound concentration using a 4 parameter log dose, non-linear regression analysis, with sigmoidal dose response (variable slope) curve fit using Prizm 4.0. IC50 values were obtained from this curve fit. The compound testing was performed in duplicate point within two separate experiments.
(§6) Plasmodium berghei ookinete development assay
(§7) Assay was performed as previously reported.6 Briefly blood containing P. berghei CTRPp-GFP gametocytes was rapidly harvested from infected mice and introduced to test compounds pre-diluted in ookinete medium (to induce gamete formation and support ookinete development) in 96-well plates. Plates were incubated in the dark at 21°C for 22 hr before GFP fluorescence intensity measured in a plate reader. % inhibition of ookinete formation was calculated with reference to the fluorescence intensity values of a positive control (20 µM cycloheximide) and a solvent-only negative control (DMSO). All assays were performed in triplicate independent experiments and EC50 values calculated in Graphpad Prism.
(§8) The aqueous solubility of the test compounds was measured using laser nephelometry, as described previously.7 Compounds were subject to serial dilution from 10 mg/mL to 0.5 mg/mL in DMSO. An aliquot was then mixed with MilliQ water to obtain an aqueous dilution plate with a final concentration range of 100 – 5 μg/mL, with a final DMSO concentration of 1.0%. Triplicate aliquots were transferred to a flat bottomed polystyrene plate which was immediately read on the NEPHELOstar (BMG Lab Technologies). The amount of laser scatter caused by insoluble particulates (relative nephelometry units, RNU) was plotted against compound concentration using a segmental regression fit, with the point of inflection being quoted as the compounds aqueous solubility (μg/mL; […]
(§9) Intrinsic Clearance (Cli) experiments
(§10) The procedure was carried out as reported previously.7 Test compound (0.5 µM) was incubated with female CD1 mouse, male sprague-dawley rat or pooled human mixed gender liver microsomes (Xenotech LLC TM; 0.5 mg/mL 50 mM potassium phosphate buffer, pH 7.4) and the reaction initiated […]
(§11) by the addition of excess NADPH (8 mg/mL 50 mM potassium phosphate buffer, pH 7.4). […]
(Liver microsomes are vesicles of endoplasmic reticulum, rich in cytochrome P450 enzymes.)

Data set [2] can be described thus: Intrinsic clearance (Cli) in human liver microsomes. Format: in vitro ADME. The settings on record: human liver microsome.
Source text: as §1, §2, §3, §4, §5, §6, §7, §8, §9, §10, §11

A short description of data set [3]: Mouse pharmacokinetics. Format: in vivo, female NMRI mice. The settings on record: intravenous at 3 mg/kg. Here is the method:
(100 µl) was then removed from both acceptor and donor compartments and mixed with acetonitrile (80 µl) containing an internal standard. The samples were centrifuged (10 min, 5 °C, 3270 g) to sediment precipitated protein and sealed prior to UPLC-MS/MS analysis using a Quattro Premier XE (Waters Corp, USA). Pe was calculated as shown in the below equation:
Pe (nm/sec) = 107 x - In [1 - CA (t) / Cequi]
CA(t) = peak area of compound present in acceptor well at time t = 18000 sec Cequi = [CD(t) * VD + CA(t) * VA] / (VD + VA)
VA = acceptor well volume
CD(t) = peak area of compound present in donor well at time t = 18000 sec Recovery of compound from donor and acceptor wells was calculated and data was only accepted when recovery exceeded 70 %.
Human ether-à-go-go related gene (hERG) K+ assay (Outsourced)
Compounds were tested for inhibition of the human ether-à-go-go-related gene (hERG) K+ channel using IonWorks patch clamp electrophysiology. Eight-point concentration-response curves were generated on 2 occasions using 3-fold serial dilutions from the maximum final assay concentration.
Compound was dosed as a bolus solution intravenously (12) at 3mg free base/kg (dose volume: 5 mL/kg; dose vehicle: 10% DMSO, 90% saline) to female NMRI mice (n=3) or dosed orally (12 and 13) by gavage as a solution at 10 mg free base/kg (dose volume: 10mL/kg; Dose vehicle: 5 or 10% DMSO; 40% PEG400; 50 or 55% distilled water) to female NMRI mice (n=3/dose level). Female NMRI mice were chosen as these represent the sex and strain used for the P.berghei mouse model of malaria. Blood samples (10 µl) were taken from each mouse at 5, 15 and 30 minutes, 1, 2, 4, 6, and 8 hours post-dose, mixed with two volumes of distilled water and stored frozen until UPLC-MS/MS analysis. The level of each compound in mouse blood was determined by UPLC-MS/MS as previously reported.9 Pharmacokinetic parameters were derived from the blood concentration time curve using PKsolutions software v 2.0 (Summit Research Services, USA). […]

Regarding `O=C(NCCN1CCCC1)c1cc(NCCCN2CCOCC2)nc2ccc(F)cc12` [Compound 25, 6-Fluoro-2-((3-morpholinopropyl)amino)-N-(2-(pyrrolidin-1-yl)ethyl)quinoline-4-carboxamide], the “RLM Cli” value in data set [1] is less than 0.5 mL min^–1 g^–1. In data set [2], the “HLM Cli” value was less than 0.5 mL min^–1 g^–1. For the same molecule, the Clb in data set [3] came out at 14 mL min^–1 kg^–1.

With `O=C(NCCN1CCCC1)c1cc(NCCCCN2CCOCC2)nc2ccc(Cl)cc12` [Compound 27, 6-Chloro-2-((4-morpholinobutyl)amino)-N-(2-(pyrrolidin-1-yl)ethyl)quinoline-4-carboxamide], in data set [2], the “HLM Cli” value is less than 1 mL min^–1 g^–1. This molecule gave a Clb in data set [3] of 4 mL min^–1 kg^–1.

On to `O=C(NCCN1CCCC1)c1cc(NCCC2CCOCC2)nc2ccc(Cl)cc12` [Compound 30, 6-Chloro-N-(2-(pyrrolidin-1-yl)ethyl)-2-((2-(tetrahydro-2H-pyran-4-yl)ethyl)amino)quinoline-4-carboxamide], for which, in data set [1], the “RLM Cli” value amounted to 0.8 mL min^–1 g^–1. Besides, the “HLM Cli” value in data set [2] was 1 mL min^–1 g^–1. Further, in data set [3], the Clb came to 34 mL min^–1 kg^–1.

With `O=C(NCCN1CCCC1)c1cc(-c2ccc(CN3CCOCC3)cc2F)nc2ccc(F)cc12` [Compound 41], the “RLM Cli” value in data set [1] is given as less than 0.5 mL min^–1 g^–1. For the same molecule, the “HLM Cli” value in data set [2] is recorded as 1.5 mL min^–1 g^–1.
